Legend:
[1] = target: T1, Alpha-1A adrenergic receptor (Homo sapiens, UniProt P35348); experiment: GPCRScan assay: inhibition of Alpha1A; set-up: radioligand conc. used [nm] 0.2 - 1.0, parental cells stable HEK
[2] = target: Alpha-1D adrenergic receptor (Homo sapiens, UniProt P25100); experiment: GPCRScan assay: inhibition of Alpha1D; set-up: radioligand conc. used [nm] 0.3 – 1.0, parental cells stable
[3] = target: Alpha-1B adrenergic receptor (Homo sapiens, UniProt P35368); experiment: Binding assay (ADRA1B)
[4] = target: T1, Alpha-1A adrenergic receptor
[5] = target: Activin receptor type-2B (Homo sapiens) (UniProt Q13705); conditions: Compound concentration 1000.0 nM
[6] = target: Cytoplasmic tyrosine-protein kinase BMX (Homo sapiens) (UniProt P51813); conditions: Compound concentration 1000.0 nM
[7] = target: Mitotic checkpoint serine/threonine-protein kinase BUB1 (Homo sapiens) (UniProt O43683); conditions: Compound concentration 1000.0 nM
[8] = target: Calcium/calmodulin-dependent protein kinase kinase 1 (Homo sapiens) (UniProt Q8N5S9); conditions: Compound concentration 1000.0 nM
[9] = target: Cyclin-dependent kinase 5 (Homo sapiens) (UniProt Q00535); conditions: Compound concentration 1000.0 nM
[10] = target: Casein kinase I isoform gamma-3 (Homo sapiens) (UniProt Q9Y6M4); conditions: Compound concentration 1000.0 nM
[11] = target: Focal adhesion kinase 1 (Homo sapiens) (UniProt Q05397); conditions: Compound concentration 1000.0 nM
[12] = target: Fibroblast growth factor receptor 2 (Homo sapiens) (UniProt P21802); conditions: Compound concentration 1000.0 nM
[13] = target: Tyrosine-protein kinase Fgr (Homo sapiens) (UniProt P09769); conditions: Compound concentration 1000.0 nM
[14] = test system: Receptor-type tyrosine-protein kinase FLT3 (Homo sapiens), P36888 [UNDEFINED MUTATION]; conditions: Compound concentration 1000.0 nM
[15] = test system: Receptor-type tyrosine-protein kinase FLT3 (Homo sapiens), P36888 [N841I]; conditions: Compound concentration 1000.0 nM
[16] = target: Vascular endothelial growth factor receptor 3 (Homo sapiens) (UniProt P35916); conditions: Compound concentration 1000.0 nM
[17] = target: Interleukin-1 receptor-associated kinase 4 (Homo sapiens) (UniProt Q9NWZ3); conditions: Compound concentration 1000.0 nM
[18] = target: MAP/microtubule affinity-regulating kinase 4 (Homo sapiens) (UniProt Q96L34); conditions: Compound concentration 1000.0 nM
[19] = target: Serine/threonine-protein kinase PAK 2 (Homo sapiens) (UniProt Q13177); conditions: Compound concentration 1000.0 nM
[20] = target: Serine/threonine-protein kinase pim-1 (Homo sapiens) (UniProt P11309); conditions: Compound concentration 1000.0 nM
[21] = target: Serine/threonine-protein kinase RIO2 (Homo sapiens) (UniProt Q9BVS4); conditions: Compound concentration 1000.0 nM
[22] = target: Receptor-interacting serine/threonine-protein kinase 4 (Homo sapiens) (UniProt P57078); conditions: Compound concentration 1000.0 nM
[23] = target: Proto-oncogene tyrosine-protein kinase ROS (Homo sapiens) (UniProt P08922); conditions: Compound concentration 1000.0 nM
[24] = target: Ribosomal protein S6 kinase alpha-4 (Homo sapiens) (UniProt O75676); conditions: Compound concentration 1000.0 nM
[25] = target: Ribosomal protein S6 kinase alpha-3 (Homo sapiens) (UniProt P51812); conditions: Compound concentration 1000.0 nM
[26] = target: Serine/threonine-protein kinase tousled-like 2 (Homo sapiens) (UniProt Q86UE8); conditions: Compound concentration 1000.0 nM
[27] = target: Alpha-1A adrenergic receptor (Homo sapiens) (UniProt P35348); conditions: Compound concentration 10.0 uM
[28] = target: Alpha-2B adrenergic receptor (Homo sapiens) (UniProt P18089); conditions: Compound concentration 10.0 uM
[29] = target: Muscarinic acetylcholine receptor M1 (Homo sapiens) (UniProt P11229); conditions: Compound concentration 10.0 uM
[30] = target: Muscarinic acetylcholine receptor M4 (Homo sapiens) (UniProt P08173); conditions: Compound concentration 10.0 uM
[31] = target: Beta-3 adrenergic receptor (Homo sapiens) (UniProt P13945); conditions: Compound concentration 10.0 uM
[32] = target: Alpha-1D adrenergic receptor (Rattus norvegicus) (UniProt P23944); experiment: Inhibition of phenylephrine-induced contractions in bladder strips from rats with bladder outlet obstruction; type: tissue-based; conditions: Urinary bladder
[33] = target: T2, Alpha-2A adrenergic receptor (Homo sapiens) (UniProt P08913); experiment: alpha2A Eurofins-Panlabs ligand profiling; conditions: Compound concentration 10.0 uM
T2 sequence (whole entry): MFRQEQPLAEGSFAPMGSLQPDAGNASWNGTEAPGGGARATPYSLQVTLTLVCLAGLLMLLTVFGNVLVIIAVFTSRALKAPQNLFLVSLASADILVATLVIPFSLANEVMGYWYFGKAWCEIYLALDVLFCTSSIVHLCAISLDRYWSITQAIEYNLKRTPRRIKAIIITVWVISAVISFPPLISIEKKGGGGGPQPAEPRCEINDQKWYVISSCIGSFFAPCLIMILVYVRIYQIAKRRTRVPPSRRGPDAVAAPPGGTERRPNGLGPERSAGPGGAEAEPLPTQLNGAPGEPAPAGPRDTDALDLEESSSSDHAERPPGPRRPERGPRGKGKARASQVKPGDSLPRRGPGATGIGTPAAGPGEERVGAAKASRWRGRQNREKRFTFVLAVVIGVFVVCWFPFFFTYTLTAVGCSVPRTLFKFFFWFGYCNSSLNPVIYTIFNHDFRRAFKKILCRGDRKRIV

[34] = target: Alpha-2B adrenergic receptor (Homo sapiens, UniProt P18089); experiment: alpha2B Eurofins-Panlabs ligand profiling
[35] = target: Beta-2 adrenergic receptor (Homo sapiens) (UniProt P07550); experiment: beta2 Eurofins-Panlabs ligand profiling; conditions: Compound concentration 10.0 uM
[36] = target: Beta-3 adrenergic receptor (Homo sapiens) (UniProt P13945); experiment: beta3 Eurofins-Panlabs ligand profiling; conditions: Compound concentration 10.0 uM
[37] = target: Serotonin 1 (5-HT1) receptor (Homo sapiens) (UniProt P30939+P28222+P08908+P28221+P28566); experiment: 5-HT1 Eurofins-Panlabs ligand profiling; type: protein assay; conditions: Compound concentration 10.0 uM
[38] = target: 5-hydroxytryptamine receptor 3A (Homo sapiens) (UniProt P46098); conditions: Compound concentration 10.0 uM
[39] = target: 5-hydroxytryptamine receptor 5A (Homo sapiens) (UniProt P47898); conditions: Compound concentration 10.0 uM

Sequence of Fibroblast growth factor receptor 2 (Homo sapiens) (P21802 22-821 limits assumed): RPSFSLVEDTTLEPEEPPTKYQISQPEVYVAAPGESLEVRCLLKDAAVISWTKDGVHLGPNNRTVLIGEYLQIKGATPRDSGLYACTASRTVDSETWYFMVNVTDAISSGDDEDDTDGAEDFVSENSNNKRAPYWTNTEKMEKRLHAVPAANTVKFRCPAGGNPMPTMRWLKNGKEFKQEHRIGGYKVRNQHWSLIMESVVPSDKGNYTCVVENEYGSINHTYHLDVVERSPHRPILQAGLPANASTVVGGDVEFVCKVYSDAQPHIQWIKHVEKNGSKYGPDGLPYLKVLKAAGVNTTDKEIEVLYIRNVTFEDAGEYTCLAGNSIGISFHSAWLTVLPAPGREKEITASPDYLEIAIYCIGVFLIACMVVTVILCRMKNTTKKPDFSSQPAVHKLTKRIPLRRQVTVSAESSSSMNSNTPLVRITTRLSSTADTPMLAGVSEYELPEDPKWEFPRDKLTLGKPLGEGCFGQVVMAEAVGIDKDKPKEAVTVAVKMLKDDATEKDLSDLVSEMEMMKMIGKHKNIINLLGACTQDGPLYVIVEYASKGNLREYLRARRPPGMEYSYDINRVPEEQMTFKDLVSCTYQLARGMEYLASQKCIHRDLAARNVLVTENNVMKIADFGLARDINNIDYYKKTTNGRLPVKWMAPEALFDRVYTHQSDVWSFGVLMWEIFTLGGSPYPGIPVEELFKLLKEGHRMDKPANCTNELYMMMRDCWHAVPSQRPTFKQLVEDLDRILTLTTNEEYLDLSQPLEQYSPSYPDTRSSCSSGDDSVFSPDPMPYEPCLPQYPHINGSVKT
Sequence of MAP/microtubule affinity-regulating kinase 4 (Homo sapiens) (Q96L34 whole entry): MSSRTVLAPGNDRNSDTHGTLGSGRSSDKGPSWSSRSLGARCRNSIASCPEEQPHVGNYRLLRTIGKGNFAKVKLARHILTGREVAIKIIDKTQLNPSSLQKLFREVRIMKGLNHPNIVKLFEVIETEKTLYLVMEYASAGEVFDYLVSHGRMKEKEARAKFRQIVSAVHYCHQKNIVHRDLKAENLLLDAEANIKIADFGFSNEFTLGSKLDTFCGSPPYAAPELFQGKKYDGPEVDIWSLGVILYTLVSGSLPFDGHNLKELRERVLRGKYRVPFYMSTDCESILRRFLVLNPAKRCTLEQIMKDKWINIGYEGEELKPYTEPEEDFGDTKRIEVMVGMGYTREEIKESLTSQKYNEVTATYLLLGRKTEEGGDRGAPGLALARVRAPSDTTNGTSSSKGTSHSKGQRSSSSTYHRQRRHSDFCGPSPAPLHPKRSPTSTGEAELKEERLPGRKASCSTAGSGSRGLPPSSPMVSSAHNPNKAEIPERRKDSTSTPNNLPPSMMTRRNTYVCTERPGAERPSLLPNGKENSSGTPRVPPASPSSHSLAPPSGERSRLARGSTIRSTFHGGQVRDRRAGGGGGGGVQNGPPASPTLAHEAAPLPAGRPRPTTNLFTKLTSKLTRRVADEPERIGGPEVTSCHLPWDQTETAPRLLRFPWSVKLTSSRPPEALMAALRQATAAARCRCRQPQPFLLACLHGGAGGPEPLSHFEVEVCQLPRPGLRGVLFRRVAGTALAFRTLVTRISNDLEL
Sequence of Muscarinic acetylcholine receptor M1 (Homo sapiens) (P11229 whole entry): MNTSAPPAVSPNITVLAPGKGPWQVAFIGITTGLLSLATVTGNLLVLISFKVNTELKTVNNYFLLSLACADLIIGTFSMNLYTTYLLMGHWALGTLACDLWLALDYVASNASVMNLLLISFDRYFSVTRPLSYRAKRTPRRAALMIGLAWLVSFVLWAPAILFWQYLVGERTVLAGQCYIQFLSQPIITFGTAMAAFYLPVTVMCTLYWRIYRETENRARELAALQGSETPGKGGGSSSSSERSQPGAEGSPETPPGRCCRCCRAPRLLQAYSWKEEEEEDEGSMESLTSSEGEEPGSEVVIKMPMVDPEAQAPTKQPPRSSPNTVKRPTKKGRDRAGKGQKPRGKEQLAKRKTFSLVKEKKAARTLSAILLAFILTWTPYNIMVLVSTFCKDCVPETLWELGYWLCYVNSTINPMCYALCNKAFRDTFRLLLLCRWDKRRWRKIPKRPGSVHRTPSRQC
Sequence of Mitotic checkpoint serine/threonine-protein kinase BUB1 (Homo sapiens) (O43683 whole entry, looked up): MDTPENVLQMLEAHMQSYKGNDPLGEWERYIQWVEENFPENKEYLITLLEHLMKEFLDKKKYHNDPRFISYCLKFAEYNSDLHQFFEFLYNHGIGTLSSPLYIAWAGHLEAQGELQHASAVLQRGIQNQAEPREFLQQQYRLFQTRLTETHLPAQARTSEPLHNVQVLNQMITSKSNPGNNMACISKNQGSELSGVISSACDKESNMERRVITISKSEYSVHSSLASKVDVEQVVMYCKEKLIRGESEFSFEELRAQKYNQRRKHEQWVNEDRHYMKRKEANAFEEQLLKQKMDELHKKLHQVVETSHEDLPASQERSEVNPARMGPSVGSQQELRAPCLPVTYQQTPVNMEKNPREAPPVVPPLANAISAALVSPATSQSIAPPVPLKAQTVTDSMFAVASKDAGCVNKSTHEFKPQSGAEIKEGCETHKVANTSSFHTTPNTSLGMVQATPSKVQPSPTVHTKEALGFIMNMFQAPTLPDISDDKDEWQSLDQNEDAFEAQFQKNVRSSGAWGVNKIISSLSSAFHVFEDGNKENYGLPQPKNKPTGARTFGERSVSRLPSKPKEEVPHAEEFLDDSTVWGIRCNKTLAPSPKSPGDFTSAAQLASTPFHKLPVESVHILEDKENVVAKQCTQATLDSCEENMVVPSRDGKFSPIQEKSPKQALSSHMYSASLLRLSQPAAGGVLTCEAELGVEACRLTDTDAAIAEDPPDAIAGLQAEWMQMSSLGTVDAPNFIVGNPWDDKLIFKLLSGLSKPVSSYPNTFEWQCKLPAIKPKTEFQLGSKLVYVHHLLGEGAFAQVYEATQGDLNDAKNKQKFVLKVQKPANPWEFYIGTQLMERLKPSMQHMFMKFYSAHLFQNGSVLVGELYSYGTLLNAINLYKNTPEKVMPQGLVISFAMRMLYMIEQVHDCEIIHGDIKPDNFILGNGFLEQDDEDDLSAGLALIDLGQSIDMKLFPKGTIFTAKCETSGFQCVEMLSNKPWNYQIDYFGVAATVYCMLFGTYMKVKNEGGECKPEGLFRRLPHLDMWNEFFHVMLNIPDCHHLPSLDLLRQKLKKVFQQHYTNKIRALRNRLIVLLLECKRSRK
Sequence of Casein kinase I isoform gamma-3 (Homo sapiens) (Q9Y6M4 whole entry, looked up, canonical isoform): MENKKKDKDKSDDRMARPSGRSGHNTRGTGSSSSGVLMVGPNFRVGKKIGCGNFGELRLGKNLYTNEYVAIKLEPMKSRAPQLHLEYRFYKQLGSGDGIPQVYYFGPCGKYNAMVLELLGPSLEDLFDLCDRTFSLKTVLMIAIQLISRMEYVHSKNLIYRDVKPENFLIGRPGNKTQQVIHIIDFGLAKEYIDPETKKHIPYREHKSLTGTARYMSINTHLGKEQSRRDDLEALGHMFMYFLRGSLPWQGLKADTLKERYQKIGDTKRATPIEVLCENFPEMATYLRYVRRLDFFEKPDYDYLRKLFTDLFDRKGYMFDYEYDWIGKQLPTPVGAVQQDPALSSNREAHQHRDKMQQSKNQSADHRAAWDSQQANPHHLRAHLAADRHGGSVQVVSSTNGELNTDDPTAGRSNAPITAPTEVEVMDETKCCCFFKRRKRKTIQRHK
T1 sequence (P35348 whole entry): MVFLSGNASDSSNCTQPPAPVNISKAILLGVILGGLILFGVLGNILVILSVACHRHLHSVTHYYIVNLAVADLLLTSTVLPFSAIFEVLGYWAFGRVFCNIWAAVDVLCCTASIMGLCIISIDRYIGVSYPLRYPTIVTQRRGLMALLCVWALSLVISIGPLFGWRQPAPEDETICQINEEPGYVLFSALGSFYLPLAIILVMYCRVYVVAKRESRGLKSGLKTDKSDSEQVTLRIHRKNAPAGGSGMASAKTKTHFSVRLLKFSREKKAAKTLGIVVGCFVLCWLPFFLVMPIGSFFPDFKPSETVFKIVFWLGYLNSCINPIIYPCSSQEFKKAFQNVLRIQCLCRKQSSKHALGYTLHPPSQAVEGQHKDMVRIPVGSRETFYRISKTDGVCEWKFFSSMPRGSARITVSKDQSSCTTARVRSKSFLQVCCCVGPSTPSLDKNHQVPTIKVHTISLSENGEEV
Sequence of Interleukin-1 receptor-associated kinase 4 (Homo sapiens) (Q9NWZ3 whole entry): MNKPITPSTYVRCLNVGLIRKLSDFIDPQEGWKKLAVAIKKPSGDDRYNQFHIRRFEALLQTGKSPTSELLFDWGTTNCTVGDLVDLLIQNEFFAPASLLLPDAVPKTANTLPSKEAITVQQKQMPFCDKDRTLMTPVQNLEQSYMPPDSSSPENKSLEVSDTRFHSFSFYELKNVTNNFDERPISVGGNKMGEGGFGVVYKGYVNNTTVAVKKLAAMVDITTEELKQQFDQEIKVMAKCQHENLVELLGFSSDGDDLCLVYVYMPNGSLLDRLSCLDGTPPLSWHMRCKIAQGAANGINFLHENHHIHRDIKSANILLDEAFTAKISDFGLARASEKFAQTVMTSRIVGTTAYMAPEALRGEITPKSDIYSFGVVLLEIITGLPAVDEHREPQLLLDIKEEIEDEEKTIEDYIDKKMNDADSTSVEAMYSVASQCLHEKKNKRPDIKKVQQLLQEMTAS
Sequence of Serine/threonine-protein kinase RIO2 (Homo sapiens) (Q9BVS4 whole entry, looked up): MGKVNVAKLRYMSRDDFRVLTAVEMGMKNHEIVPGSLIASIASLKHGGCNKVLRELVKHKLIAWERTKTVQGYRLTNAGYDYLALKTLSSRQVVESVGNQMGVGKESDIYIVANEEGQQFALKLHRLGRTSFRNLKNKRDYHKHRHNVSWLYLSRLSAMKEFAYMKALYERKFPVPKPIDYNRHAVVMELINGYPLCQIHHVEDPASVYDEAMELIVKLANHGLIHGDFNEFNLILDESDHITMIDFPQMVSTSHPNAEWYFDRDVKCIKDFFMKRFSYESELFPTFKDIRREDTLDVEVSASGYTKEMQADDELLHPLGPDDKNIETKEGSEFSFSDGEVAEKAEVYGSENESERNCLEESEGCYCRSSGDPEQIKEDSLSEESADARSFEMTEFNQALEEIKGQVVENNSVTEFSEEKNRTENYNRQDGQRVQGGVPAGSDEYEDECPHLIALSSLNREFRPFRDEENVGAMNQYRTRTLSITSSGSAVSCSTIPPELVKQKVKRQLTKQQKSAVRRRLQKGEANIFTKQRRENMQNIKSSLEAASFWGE

C[C@@H](c1cccc(C#N)c1)n1cc(Cl)cc(C(N)=O)c1=N [(S)-9s]
Ki [1]: 1.07 µM
Ki [2]: 1.48 µM
Ki [3]: > 1.2 µM (not active)
Ki [4]: > 2.7 µM (not active)
residual activity [5]: 100%
residual activity [6]: 95%
residual activity [7]: 93%
residual activity [8]: 100%
residual activity [9]: 92%
residual activity [10]: 100%
residual activity [11]: 100%
residual activity [12]: 67%
residual activity [13]: 87%
residual activity [14]: 98%
residual activity [15]: 86%
residual activity [16]: 89%
residual activity [17]: 87%
residual activity [18]: 100%
residual activity [19]: 96%
residual activity [20]: 100%
residual activity [21]: 83%
residual activity [22]: 57%
residual activity [23]: 100%
residual activity [24]: 80%
residual activity [25]: 86%
residual activity [26]: 100%
inhibition [27]: 54.8%
inhibition [28]: 0.7%
inhibition [29]: 14.9%
inhibition [30]: -6.48%
inhibition [31]: -4.49%

C[C@H](c1cccc(C#N)c1)n1cc(Cl)cc(C(N)=O)c1=N [(R)-9s]
IC30 [32]: 0.015 µM
inhibition [33]: 5%
IC50 [34]: 1.4 µM
inhibition [35]: 4%
inhibition [36]: -6%
inhibition [37]: 0%
residual activity [5]: 100%
residual activity [6]: 77%
residual activity [7]: 75%
residual activity [8]: 87%
residual activity [9]: 100%
residual activity [10]: 100%
residual activity [11]: 100%
residual activity [12]: 43%
residual activity [13]: 80%
residual activity [14]: 100%
residual activity [15]: 97%
residual activity [16]: 80%
residual activity [17]: 82%
residual activity [18]: 99%
residual activity [19]: 100%
residual activity [20]: 100%
residual activity [21]: 74%
residual activity [22]: 71%
residual activity [23]: 100%
residual activity [24]: 69%
residual activity [25]: 80%
residual activity [26]: 100%
inhibition [38]: -5.97%
inhibition [39]: 0.88%
inhibition [29]: 9.11%

Source: ChEMBL document CHEMBL4507301 (2021)
